Measurements as given in patent US10674755B2, “Organic Compounds” (GIVAUDAN SA, priority 2013, dated 2020).

What was measured:
[1] = Mango-flavoured beverage taste evaluation by a panel of experienced tasters; conditions: 0.5 ppm dosed to mango drink (mango flavour 0.05% w/w, mango juice 0.18% w/w, sugar 8% w/w, citric acid 0.1% w/w)
Experimental: A mango-flavoured beverage was prepared using a standard mango flavour (0.05% w/w), mango juice (0.18% w/w), sugar (8% w/w) and citric acid (0.1% w/w).

[2] = Beef bouillon taste evaluation by a panel of experienced tasters
Experimental: A beef bouillon was prepared using bouillon cubes obtained from a local supermarket.

[3] = 0.5 ppm dosed to beef bouillon from bouillon cubes
[4] = 40 ppb added to beef bouillon from bouillon cubes

Row | Structure (SMILES) | taste of the mango drink versus the reference drink (panel agreement) [1] | taste of the bouillon versus the reference (panel agreement) [2, 3] | taste of the bouillon versus the reference (panel agreement) [2, 4]
1 | CCCCCCCC/C=C\CCCCCCCC(=O)NCCCSC [Example 2, N-(3-(methylthio)propyl)oleamide] | tasted more tropical and more juicy than the reference drink |  | 
2 | CCCCCCCC/C=C\CCCCCCCC(=O)NCCC(C)C [Example 4, N-isopentyloleamide] | tasted somewhat more astringent and fruity and had more body |  | 
3 | CCCCCCCC/C=C\CCCCCCCC(=O)NCCCC(N)=O [Example 6, N-(4-amino-4-oxobutyl)oleamide] |  | tasted more full and had more mouthfeel than the reference | 
4 | CC/C=C\C/C=C\C/C=C\CCCCCCCC(=O)NCCO [Example 8, N-(2-hydroxyethyl)linolenamide] |  |  | tasted more fatty, and slightly more salty than the reference
5 | CCCCCCCCCCCCCCCCCCCC(=O)NCCO [Example 9, N-(2-hydroxyethyl)eicosanamide] |  |  | tasted more fatty, beefier and smoky, tasted more fully and had more body than the reference
6 | CCCCC/C=C\C/C=C\C/C=C\C/C=C\CCCC(=O)NCCO [Example 10, N-(2-hydroxyethyl)arachidonamide] |  | had more mouthfeel and tasted more salty and more umami than the reference | tasted saltier, sweeter, more fatty and slightly more umami than the reference, and had more mouthfeel
